“And” between values parts separate entries of the source, which are not always exact repeats. Equal values may be shown once. Starred links: 1 amine or outer side, 2 acyl side, 3 side chain; linkers in the order of their positions; H or OH if unused. Non-standard residues stand in square brackets, D forms with d. No end group written: not given here. Benzoyl(5-NH,2-NO2) = O=C(c1cc(N[*:1])ccc1[N+](=O)[O-])[*:2]; 2Abz = Nc1ccccc1C(=O)O
What was measured:
Format in all cases: biochemical, human
[1] = test system: urine samples taken from healthy persons; assay: Absorbance measurement of substrate hydrolysis in urine from healthy subjects; conditions: for absorbance (Results of absorbance analysis): healthy person, 405 nm, 37° C., 60 minutes, pH 8.0, triplicate
[2] = test system: enzymatic activity specific to lung cancer in urine from a subject suffering from lung cancer; assay: Absorbance measurement of substrate hydrolysis in urine from subjects with lung cancer; conditions: for absorbance (Results of absorbance analysis): 405 nm, 37° C., 60 minutes, pH 8.0, triplicate
Protocol: (§1) The activity of the novel compounds according to the invention was studied in a group of 20 subjects diagnosed with lung cancer using the representative compound according to the invention. […] The remaining compounds according to the invention are characterized by the analogous mechanism of action. For this purpose, the representative compound according to the invention, ABZ^1-Tyr^2-Ile^3-Phe^4-Arg^5-ANB^6-NH2, was dissolved in dimethyl sulfoxide (at a concentration of 0.5 mg/mL) and then 50 μL of the solution was mixed with 120 μL of a buffer (200 mM Tris-HCl, pH 8.0) and 80 μL of urine from a subject suffering from lung cancer. The measurement was performed on a 96-well plate designed for measuring absorbance and each sample was analysed in triplicate at the temperature of 37° C. The duration of the measurement was 60 minutes. During the measurement, the wavelength characteristic for the chromophore (ANB-NH2) being released was monitored at the wavelength 405 nm (range 380-430 nm).

[3] = test system: urine samples from patients with diagnosed cancers; assay: Selectivity of substrate cleavage in urine from patients with different cancers
Text: Arabic numerals indicate the numbers of given cancer types. The samples tested for each type of cancer were derived from 20 different patients for each of the tested cancers. The results are mean values for given cancer types.
as §1
Furthermore, the dependence of the cleavage selectivity of the substrate, i.e. the compound according to the invention, on the cancer being examined, was studied. […]

Substance: ABZ-Tyr-Ile-Phe-Arg-ANB-NH2 ([2Abz]YIFR-{Benzoyl(5-NH,2-NO2)-NH2}) [chromogenic/fluorogenic FRET peptide substrate, ABZ = 2-aminobenzoic acid, ANB-NH2 = amide of 5-amino-2-nitrobenzoic acid]
- absorbance (Results of absorbance analysis) ([1]; urine sample 1Z): 0.00000
- absorbance (Results of absorbance analysis) ([1]; urine sample 2Z): 0.00000
- absorbance (Results of absorbance analysis) ([1]; urine sample 3Z): 0.00000
- absorbance (Results of absorbance analysis) ([1]; urine sample 4Z): 0.00000
- absorbance (Results of absorbance analysis) ([1]; urine sample 5Z): 0.00000
- absorbance (Results of absorbance analysis) ([1]; urine sample 6Z): 0.00000
- absorbance (Results of absorbance analysis) ([1]; urine sample 7Z): 0.00000
- absorbance (Results of absorbance analysis) ([1]; urine sample 8Z): 0.00000
- absorbance (Results of absorbance analysis) ([1]; urine sample 9Z): 0.00000
- absorbance (Results of absorbance analysis) ([1]; urine sample 10Z): 0.00000
- absorbance (Results of absorbance analysis) ([1]; urine sample 11Z): 0.00000
- absorbance (Results of absorbance analysis) ([1]; urine sample 12Z): 0.00000
- absorbance (Results of absorbance analysis) ([1]; urine sample 13Z): 0.00000
- absorbance (Results of absorbance analysis) ([1]; urine sample 14Z): 0.00000
- absorbance (Results of absorbance analysis) ([1]; urine sample 15Z): 0.00000
- absorbance (Results of absorbance analysis) ([1]; urine sample 16Z): 0.00000
- absorbance (Results of absorbance analysis) ([1]; urine sample 17Z): 0.00000
- absorbance (Results of absorbance analysis) ([1]; urine sample 18Z): 0.00000
- absorbance (Results of absorbance analysis) ([1]; urine sample 19Z): 0.00000
- absorbance (Results of absorbance analysis) ([1]; urine sample 20Z): 0.00000
- absorbance (Results of absorbance analysis) ([1]; urine sample 21Z): 0.00000
- absorbance (Results of absorbance analysis) ([1]; urine sample 22Z): 0.00000
- absorbance (Results of absorbance analysis) ([1]; urine sample 23Z): 0.00000
- absorbance (Results of absorbance analysis) ([1]; urine sample 24Z): 0.00000
- absorbance (Results of absorbance analysis) ([1]; urine sample 25Z): 0.00000
- increase in absorbance / hydrolysis ([1]; urine samples from healthy persons 1Z to 25Z): does not lead to an increase in absorbance
- cleavage of the substrate ([2]; all samples 1-50 from persons suffering from lung cancer): underwent cleavage
- efficiency of cleavage of the substrate ([2]; samples 7 and 16 compared with samples 50 or 42 (FIG. 2)): less efficiently
- absorbance (Results of absorbance analysis) ([2]; urine sample 7, lung cancer): 0.0015 and 0.0017 and 0.002
- absorbance (Results of absorbance analysis) ([2]; urine sample 8, lung cancer): 0.0032 and 0.0031 and 0.0036
- absorbance (Results of absorbance analysis) ([2]; urine sample 9, lung cancer): 0.026 and 0.0294 and 0.025
- absorbance (Results of absorbance analysis) ([2]; urine sample 10, lung cancer): 0.0403 and 0.0738 and 0.056
- absorbance (Results of absorbance analysis) ([2]; urine sample 11, lung cancer): 0.0195 and 0.019 and 0.0188
- absorbance (Results of absorbance analysis) ([2]; urine sample 12, lung cancer): 0.0056 and 0.0068 and 0.0062
- absorbance (Results of absorbance analysis) ([2]; urine sample 13, lung cancer): 0.063 and 0.0633 and 0.0632
- absorbance (Results of absorbance analysis) ([2]; urine sample 14, lung cancer): 0.018 and 0.0176 and 0.0179
- absorbance (Results of absorbance analysis) ([2]; urine sample 15, lung cancer): 0.015 and 0.0139 and 0.0146
- absorbance (Results of absorbance analysis) ([2]; urine sample 16, lung cancer): 0.0015 and 0.0016 and 0.002
- absorbance (Results of absorbance analysis) ([2]; urine sample 17, lung cancer): 0.0096 and 0.0095 and 0.0102
- absorbance (Results of absorbance analysis) ([2]; urine sample 18, lung cancer): 0.0104 and 0.019 and 0.0156
- absorbance (Results of absorbance analysis) ([2]; urine sample 20, lung cancer): 0.0443 and 0.0299 and 0.036
- absorbance (Results of absorbance analysis) ([2]; urine sample 21, lung cancer): 0.0215 and 0.022 and 0.0256
- absorbance (Results of absorbance analysis) ([2]; urine sample 22, lung cancer): 0.0301 and 0.0349 and 0.035
- absorbance (Results of absorbance analysis) ([2]; urine sample 23, lung cancer): 0.0732 and 0.0483 and 0.065
- absorbance (Results of absorbance analysis) ([2]; urine sample 25, lung cancer): 0.0703 and 0.0549 and 0.062
- absorbance (Results of absorbance analysis) ([2]; urine sample 26, lung cancer): 0.149 and 0.1049 and 0.103
- absorbance (Results of absorbance analysis) ([2]; urine sample 27, lung cancer): 0.1005 and 0.1078 and 0.106
- absorbance (Results of absorbance analysis) ([2]; urine sample 28, lung cancer): 0.0613 and 0.0765 and 0.072
- absorbance (Results of absorbance analysis) ([2]; urine sample 29, lung cancer): 0.0203 and 0.0218 and 0.025
- absorbance (Results of absorbance analysis) ([2]; urine sample 30, lung cancer): 0.1595 and 0.1543 and 0.156
- absorbance (Results of absorbance analysis) ([2]; urine sample 31, lung cancer): 0.0346 and 0.0306 and 0.036
- absorbance (Results of absorbance analysis) ([2]; urine sample 32, lung cancer): 0.01457 and 0.0186 and 0.0159
- absorbance (Results of absorbance analysis) ([2]; urine sample 33, lung cancer): 0.07 and 0.0625 and 0.0687
- absorbance (Results of absorbance analysis) ([2]; urine sample 34, lung cancer): 0.0421 and 0.0243 and 0.036
- absorbance (Results of absorbance analysis) ([2]; urine sample 35, lung cancer): 0.0402 and 0.0714 and 0.0632
- absorbance (Results of absorbance analysis) ([2]; urine sample 36, lung cancer): 0.0046 and 0.0057 and 0.00498
- absorbance (Results of absorbance analysis) ([2]; urine sample 37, lung cancer): 0.058 and 0.065 and 0.062
- absorbance (Results of absorbance analysis) ([2]; urine sample 38, lung cancer): 0.0194 and 0.01741 and 0.0185
- absorbance (Results of absorbance analysis) ([2]; urine sample 40, lung cancer): 0.0572 and 0.03085 and 0.0469
- absorbance (Results of absorbance analysis) ([2]; urine sample 41, lung cancer): 0.0138 and 0.0163 and 0.0156
- absorbance (Results of absorbance analysis) ([2]; urine sample 42, lung cancer): 0.1543 and 0.1976 and 0.175
- absorbance (Results of absorbance analysis) ([2]; urine sample 43, lung cancer): 0.0366
- selectivity of hydrolysis of the substrate ([3]; lung cancer urine (sample 1) vs other neoplastic disease (samples 2-9), FIG. 3, mean values): selectivity of substrate cleavage in the case of urine from patients with lung cancer
- cleavage / increase in absorbance ([3]; samples from patients with testicular, intestine, kidney, prostate, pancreatic, bile duct, lung, ovarian, and rectum cancer): is not subject to cleavage
